Literature values as cited in publication PMC12308805, “Ultrahigh-Throughput Virtual Screening Strategies against PPI Targets: A Case Study of STAT Inhibitors” (Journal of Chemical Information and Modeling, 2025).
Square brackets hold non-standard residues; d marks the D form. Ends that are not written are not given here. Peptide text beside a SMILES is read from it. pY = N[C@@H](Cc1ccc(OP(=O)(O)O)cc1)C(=O)O

Tested on: STAT3
Conditions: cited from earlier work
For `CC(C)C[C@H](NC(=O)/C=C/c1ccc(OP(=O)(O)O)cc1)C(=O)N1C[C@H]2C[C@H]2[C@H]1C(=O)N[C@H](C)CCC(N)=O` [CHEMBL576784], the “Type (known STAT3 active)” value is listed as “Active”.
For `CC(=O)N[C@@H](Cc1ccc(OP(=O)(O)O)cc1)C(=O)N[C@@H](CC(C)C)C(=O)N1CCC[C@H]1C(=O)N[C@@H](CCC(N)=O)C(=O)N[C@H](C(N)=O)[C@@H](C)O` [CHEMBL382978] (Ac-[pY]LPQT-NH2), the “Type (known STAT3 active)” value is given as “Active”.

Same assay, conditions: sheet 6QHD_actives_decoys, retrospective screening set for STAT3 SH2 domain (PDB 6QHD); decoys are presumed inactives, not tested; ref DUD-E; cited from earlier work
For `COc1cc(C(=O)OC[C@]2(O)CO[C@H](OC[C@@H]3O[C@@H](Oc4c(OC)cc(CO)cc4OC)[C@H](O)[C@H](O)[C@@H]3O)[C@@H]2O)cc(OC)c1O` [Decoy800], the Type is given as “Inactive (Decoy)”.
For `Cc1c(C#N)c(NC(=O)CSc2nnc(COc3ccccc3F)n2N)n(C[C@@H]2CCCO2)c1C` [Decoy954], the Type is given as “Inactive (Decoy)”.
For `O[C@H](CNCCOc1ccccc1OCCNC[C@H](O)COc1cccc2[nH]c3ccccc3c12)COc1cccc2[nH]c3ccccc3c12` [Decoy828], the Type is given as “Inactive (Decoy)”.
For `CCCCSc1nnc(/N=C(\O)CSc2n[nH]c(N/N=C/c3c(C)nn(C(C)C)c3C)n2)s1` [Decoy797], the Type is given as “Inactive (Decoy)”.
In the case of `CC(=O)Nc1ccc(S(=O)(=O)NCCCCNc2ccc([N+](=O)[O-])c3cccnc23)cc1` [Decoy809], the Type is listed as “Inactive (Decoy)”.
In the case of `COc1ccc(OC[C@@H](O)Cn2c(C)c(C#N)c(=O)n(C[C@@H](O)COc3ccc(OC)cc3)c2=O)cc1` [Decoy738], the Type is given as “Inactive (Decoy)”.
For `C=CCO[C@@H]1[C@H]2OC(C)(C)O[C@H]2O[C@@H]1[C@H](O)Cn1c(=O)n(C[C@@H](O)[C@H]2O[C@@H]3OC(C)(C)O[C@@H]3[C@H]2OCC=C)c2cc(C)ccc21` [Decoy929], the Type is given as “Inactive (Decoy)”.
In the case of `C[C@@H](NC(=O)[C@@H](N)Cc1ccc(O)cc1)C(=O)NCC(=O)N[C@@H](Cc1ccccc1)C(=O)NNC(=O)[C@H](Cc1ccccc1)NC(=O)CNC(=O)[C@@H](C)NC(=O)[C@@H](N)Cc1ccc(O)cc1` [Decoy945], the Type is listed as “Inactive (Decoy)”.
In the case of `CCOC(=O)c1ccc(NC(=O)CSc2nnc(CNC(=O)c3ccco3)n2-c2ccc(OCC)cc2)cc1` [Decoy789], the Type is given as “Inactive (Decoy)”.
In the case of `CCOc1ccc(-n2c(Cc3cc(=O)[nH]c(=O)[nH]3)nnc2SCC(=O)Nc2ccc(F)cc2)cc1` [Decoy796], the Type is listed as “Inactive (Decoy)”.
In the case of `CN(CCO)c1ccc(/C=N\Nc2ccc(S(=O)(=O)Nc3ccccc3C(=O)O)cc2[N+](=O)[O-])cc1` [Decoy894], the Type is given as “Inactive (Decoy)”.
For `Cc1cc(C)nc(N/C(=N/C(=O)Nc2cccc(Cl)c2)NCCSCc2[nH]cnc2C)n1` [Decoy901], the Type is given as “Inactive (Decoy)”.
For `Cc1cccc(N(C(=O)c2snc(C(N)=O)c2N)[C@H](C(=O)NCCC(C)C)c2ccc(N(C)C)cc2)c1` [Decoy870], the Type is listed as “Inactive (Decoy)”.
For `CCOC(=O)N[C@@](Nc1ccc(S(=O)(=O)Nc2ncccn2)cc1)(C(=O)OCC)C(F)(F)F` [Decoy792], the Type is given as “Inactive (Decoy)”.
For `CC(=O)Nc1cccc(NC(=O)CSc2nnc(N/N=C/c3c(O)ccc4ccccc34)n2N)c1` [Decoy752], the Type is listed as “Inactive (Decoy)”.
In the case of `COc1ccc(OC)c(S(=O)(=O)Nc2ccc(S(=O)(=O)Nc3nccc(C)n3)cc2)c1` [Decoy835], the Type is listed as “Inactive (Decoy)”.
For WAGGDASGE [Decoy910], the Type is listed as “Inactive (Decoy)”.
For `CC(C)N(C(=O)c1ccc(C(=O)Nc2cccc(NC(=O)c3ccc(C(=O)N(C(C)C)C(C)C)cc3)n2)cc1)C(C)C` [Decoy874], the Type is listed as “Inactive (Decoy)”.
For `O=C(O)CCNS(=O)(=O)c1ccc(NCCc2ccc(C(F)(F)F)cc2)c([N+](=O)[O-])c1` [Decoy891], the Type is given as “Inactive (Decoy)”.
For `Cc1nn(C)cc1CN1CCN(C(=S)Nc2ccc(S(=O)(=O)Nc3ncccn3)cc2)CC1` [Decoy788], the Type is listed as “Inactive (Decoy)”.
For `CCCCNC(=O)[C@@H](c1cc([N+](=O)[O-])ccc1Cl)N(Cc1ccc(C)o1)C(=O)c1ccccc1O` [Decoy813], the Type is given as “Inactive (Decoy)”.

Same assay, conditions: sheet 6QHD_actives_decoys; known STAT3 actives of the retrospective screening set; ref ChEMBL / literature; cited from earlier work
For `CC(C)C[C@H](NC(=O)/C=C/c1ccc(OP(=O)(O)O)cc1)C(=O)N1CCC[C@H]1C(=O)NCCNC(N)=O` [CHEMBL574636], the “Type (known STAT3 active)” value is given as “Active”.
For `CC(C)C[C@H](NC(=O)/C=C/c1ccc(OP(=O)(O)O)cc1)C(=O)N1C[C@H]2C[C@H]2[C@H]1C(=O)N[C@@H](CCC(N)=O)[C@@H](C)O` [CHEMBL583725], the “Type (known STAT3 active)” value is listed as “Active”.
In the case of `CCCC[C@H](CCC(N)=O)NC(=O)[C@@H]1[C@@H]2C[C@@H]2CN1C(=O)[C@H](CC(C)C)NC(=O)/C=C/c1ccc(OP(=O)(O)O)cc1` [CHEMBL583116], the “Type (known STAT3 active)” value is listed as “Active”.
For `CC(C)C[C@H](NC(=O)/C=C/c1ccc(OP(=O)(O)O)cc1)C(=O)N1CCC[C@H]1C(=O)N[C@@H](CCC(N)=O)COC(N)=O` [CHEMBL573643], the “Type (known STAT3 active)” value is given as “Active”.

Same assay, conditions: sheet 6QHD_actives_decoys; retrospective screening set for STAT3 SH2 domain (PDB 6QHD); […]; ref DUD-E; cited from earlier work
For `O=C(CCCN1CCC(O[C@@H]2O[C@H](C(=O)O)[C@@H](O)[C@H](O)[C@H]2O)(c2ccc(Cl)cc2)CC1)c1ccc(F)cc1` [Decoy692], the Type is given as “Inactive (Decoy)”.

Same assay, conditions: sheet 6QHD_actives_decoys; retrospective screening set for STAT3 SH2 domain (PDB 6QHD); decoys generated with DUD-E and presumed inactive, not tested; ref DUD-E; cited from earlier work
For `O=C(Nc1ccc(S(=O)(=O)Nc2ncccn2)cc1)c1cccc(C(=O)Nc2ccc(S(=O)(=O)Nc3ncccn3)cc2)n1` [Decoy668], the Type is listed as “Inactive (Decoy)”.
In the case of `OC[C@@]1(O)CO[C@H](OC[C@H]2O[C@@H](O[C@H](CCCCc3ccc(O)cc3)CCc3ccc(O)cc3)[C@H](O[C@H]3OC[C@](O)(CO)[C@H]3O)[C@@H](O)[C@@H]2O)[C@@H]1O` [Decoy685], the Type is listed as “Inactive (Decoy)”.
In the case of `CCN(CC)C(=O)c1sc(NC(=O)CCSCCC(=O)Nc2sc(C(=O)N(CC)CC)c(C)c2C(=O)OC)c(C(=O)OC)c1C` [Decoy632], the Type is given as “Inactive (Decoy)”.
In the case of `CCN(CC)c1ccc(/C=N/NC(=O)CSc2nnc(-c3cc(OC)c(OC)c(OC)c3)n2-c2ccccc2)c(O)c1` [Decoy703], the Type is given as “Inactive (Decoy)”.
In the case of `COc1ccccc1OCCNC[C@H](O)CN(CCOc1ccccc1OC)C[C@H](O)COc1cccc2[nH]c3ccccc3c12` [Decoy708], the Type is listed as “Inactive (Decoy)”.
In the case of `CO[C@@H]1O[C@@H]2CO[C@@H](c3ccccc3)O[C@H]2[C@H](O[C@@H]2O[C@H](COC(C)=O)[C@H](OC(C)=O)[C@H](OC(C)=O)[C@H]2OC(C)=O)[C@H]1NC(C)=O` [Decoy547], the Type is listed as “Inactive (Decoy)”.
In the case of `COC(=O)[C@@H](/C(=N/N)C(=O)Nc1cc(Cl)ccc1Cl)c1nc2ccc([N+](=O)[O-])cc2nc1O` [Decoy349], the Type is given as “Inactive (Decoy)”.
For `Cc1ccc(S(=O)(=O)CNC(=O)[C@@H](c2ccc3c(c2)OCO3)N(C)C(=O)c2cccc(O)c2O)cc1` [Decoy614], the Type is listed as “Inactive (Decoy)”.
For `COc1ccc(/C=N\N=C2/NC(=O)[C@@H](CC(=O)Nc3ccc([N+](=O)[O-])cc3)S2)c(C(=O)O)c1OC` [Decoy694], the Type is listed as “Inactive (Decoy)”.
In the case of `NC(=O)CN(CC(N)=O)c1ccc(F)cc1OCCOc1cc(F)ccc1N(CC(N)=O)CC(N)=O` [Decoy400], the Type is listed as “Inactive (Decoy)”.
In the case of `COc1cc([N+](=O)[O-])ccc1NC(=O)C[C@H]1N=C(N/C(N)=N/c2ccccc2C)N=C1O` [Decoy615], the Type is listed as “Inactive (Decoy)”.
For `O=C(CSc1cn[nH]n1)Nc1ccc(-c2nc3ccc(NC(=O)CSc4cn[nH]n4)cc3s2)c(O)c1` [Decoy624], the Type is listed as “Inactive (Decoy)”.
In the case of `COC(=O)CNC(=O)C[C@@](C)(O)CC(=O)O[C@H]1[C@@H](O)C[C@@]2(C)C3=C(CC[C@H]2C1(C)C)[C@@]1(C)CC[C@H]([C@H](CO)CC[C@H](O)C(C)(C)O)[C@]1(C)[C@@H](O)C3` [Decoy481], the Type is given as “Inactive (Decoy)”.
For `CCOc1cc(N2CCOCC2)c(OCC)cc1NC(=O)c1oc2ccccc2c1CSc1ncn[nH]1` [Decoy600], the Type is given as “Inactive (Decoy)”.
For `C[C@@]12CCC[C@@](C)(C(=O)O[C@@H]3O[C@@H](CO)[C@@H](O)[C@@H](O)[C@H]3O)[C@H]1CC[C@]13C[C@H](CC[C@H]12)[C@@](CO)(O[C@@H]1O[C@@H](CO)[C@@H](O)[C@@H](O)[C@H]1O)C3` [Decoy524], the Type is listed as “Inactive (Decoy)”.
For `C=C(CCO)C(=O)OC[C@@H]1OC[C@H](OC(=O)C(=C)CCO[C@@H]2O[C@H](COC(=O)C(=C)CCO)[C@@H](O)[C@H](O)[C@H]2O)[C@@H](O)[C@H]1O` [Decoy491], the Type is given as “Inactive (Decoy)”.
For `CCOC(=O)c1ccc(/N=C2\S[C@@H](CC(=O)Nc3ccc(C(=O)OCC)cc3)C(=O)N2CCc2ccc(Cl)cc2)cc1` [Decoy552], the Type is given as “Inactive (Decoy)”.
In the case of `CCOCCOc1ccccc1C(=O)N/C(S)=N\NC(=O)COc1ccc([N+](=O)[O-])cc1` [Decoy631], the Type is given as “Inactive (Decoy)”.
For `CC(=O)N[C@@H]1[C@H]([C@H](O)[C@H](O)CO)O[C@@](O[C@H]2[C@@H](O)[C@@H](O[C@@H]([C@@H](O[C@@H]3O[C@@H](C)[C@@H](O)[C@H](O)[C@@H]3O)[C@H](O)C=O)[C@H](O)CO)O[C@@H](CO)[C@H]2O)(C(=O)O)C[C@@H]1O` [Decoy381], the Type is listed as “Inactive (Decoy)”.
For `CCOC(=O)c1sc(Nc2ccc(NC(=O)C[C@@H](NCCOC)C(=O)O)cc2)nc1C` [Decoy654], the Type is given as “Inactive (Decoy)”.
For `COc1ccc(C(=O)N/C(=C\c2cn(S(=O)(=O)N(C)C)c3ccccc23)C(=O)NCCN2CCOCC2)cc1OC` [Decoy375], the Type is given as “Inactive (Decoy)”.
For `Cc1cc(C)n(Cc2ccc(NC(=S)Nc3ccc(S(=O)(=O)Nc4ncccn4)cc3)cc2)n1` [Decoy696], the Type is listed as “Inactive (Decoy)”.
In the case of `CCOC(=O)c1ccc(NC(=O)CSc2nnc(CNC(=O)COc3ccccc3)n2-c2cccc(C)c2)cc1` [Decoy473], the Type is listed as “Inactive (Decoy)”.
In the case of `O=C(CSc1n[nH]c(N/N=C/c2ccc(OCc3ccc(F)cc3)o2)n1)Nc1nccs1` [Decoy487], the Type is listed as “Inactive (Decoy)”.
For `CC[N+]1=c2cc3c(cc2CCC1)=Nc1cc2c(cc1O3)N(CCCC(=O)NCCCCCNC(=O)CCCC[C@@H]1SC[C@@H]3NC(=O)N[C@@H]31)C(C)(C)C=C2CS(=O)(=O)[O-]` [Decoy583], the Type is listed as “Inactive (Decoy)”.
For `COC(=O)[C@H]1O[C@H](OCC(=O)[C@@]2(O)CC[C@H]3[C@H]4CCC5=CC(=O)C=C[C@@]5(C)[C@@H]4[C@@H](O)C[C@@]32C)[C@@H](OC(C)=O)[C@H](OC(C)=O)[C@H]1OC(C)=O` [Decoy634], the Type is listed as “Inactive (Decoy)”.
In the case of `COCC(=O)Nc1c(I)c(C(=O)NC[C@H](O)CO)c(I)c(C(=O)N(C)C[C@H](O)CO)c1I` [Decoy333], the Type is given as “Inactive (Decoy)”.
